Patent US11891394B1, “Pyrrolo[2,3-c][1,6]naphthyridine-8-carboxylic acid compounds as CK2 inhibitors” (KING FAISAL UNIVERSITY, priority 2023, dated 2024)

Tests used:
HL60 (leukemia) = experiment: In vitro cytotoxic activity (MTT) assay, HL60; type: cell-based; conditions: Homo sapiens, HL-60, exposed 96 hours, read-out: IC50, 50% inhibition of cell proliferation
Description: (§1) Compounds 1-16 were screened for their in vitro cytotoxic activity utilizing a 3-(4,5-dimethyl-thiazol-2-yl)-2,5-diphenyltetrazolium bromide (MTT) assay against selected cancer human cell lines consisting of PC3 (prostate), HCT116 (colon), A375 (melanoma), H1299 (lung), MIAPaCa-2 (pancreas), HL60 (leukemia), MCF7 (breast), MDA-MB-231 (breast) (T. Mosmann, J. Immunol. Meth., 1983, 65, 55-63). The cells were cultured at 37° C. in RMPI1640 medium supplemented with 10% fetal bovine serum, 50 IU/mL penicillin, and 50 μg/mL streptomycin in a 5% CO2 incubator. All cells were sub-cultured 3 times/week by trypsinisation. Viable cells were seeded and allowed to adhere for 12 h before a test drug was added in 96-well plates at an initial density of 1.0×10^5 cells/mL. Tumour cell lines were separately exposed to various concentrations of the tested compounds followed by incubation at a temperature of 37° C. during 96 h inside a medium of fresh RMPI 1640. Cells were subsequently incubated at 37° C. using MTT at 0.5 mg/mL during 4 h. After removal of supernatant, formazan crystals were dissolved in isopropanol and the optical density was measured at 570 nm. CX-4945 was used as a positive control.

H1299 (lung) = experiment: In vitro cytotoxic activity (MTT) assay, H1299; type: cell-based; conditions: Homo sapiens, NCI-H1299, exposed 96 hours, read-out: IC50, 50% inhibition of cell proliferation
Description: as §1

PC3 (prostate) = experiment: In vitro cytotoxic activity (MTT) assay, PC3; type: cell-based; conditions: Homo sapiens, exposed 96 hours, read-out: IC50, 50% inhibition of cell proliferation
Description: as §1

MCF7 (breast) = experiment: In vitro cytotoxic activity (MTT) assay, MCF7; type: cell-based; conditions: Homo sapiens, exposed 96 hours, read-out: IC50, 50% inhibition of cell proliferation
Description: as §1

MIAPaCa-2 (pancreas) = experiment: In vitro cytotoxic activity (MTT) assay, MIAPaCa-2; type: cell-based; conditions: Homo sapiens, MIA PaCa-2, exposed 96 hours, read-out: IC50, 50% inhibition of cell proliferation
Description: as §1

[1] = biological target: T1, recombinant human CK2 (RRββ-holoenzyme) (Homo sapiens, UniProt P68400); experiment: CK2 Kinase Assay (33P-ATP, peptide RRRDDDSDDD); type: biochemical; conditions: final ATP 15 μM, 10 min at 30° C.; read-out: IC50, protein kinase CK2 activity
T1 construct: purchased Millipore
Description: CK2 Kinase Assay was conducted using the protocol as described in Pierre F. et al; J. Med. Chem. 2011, 54, 635-654. The tested compounds in aqueous solution were added at a volume of 10 μL to a reaction mixture comprising 10 μL of assay dilution buffer (ADB; 20 mM MOPS, pH 7.2, 25 mM β-glycerol phosphate, 5 mM EGTA, 1 mM sodium orthovanadate, and 1 mM dithiothreitol), 10 μL of substrate peptide (RRRDDDSDDD, dissolved in ADB at a concentration of 1 mM), 10 μL of recombinant human CK2 (RRββ-holoenzyme, 25 ng dissolved in ADB; Millipore). Reactions were initiated by the addition of 10 μL of ATP solution (90% 75 mMMgCl2, 75 μM ATP (final ATP concentration: 15 μM) dissolved in ADB; 10% [γ-33P] ATP (stock 1 mCi/100 μL; 3000 Ci/mmol (Perkin-Elmer) and maintained for 10 min at 30° C. The reactions were quenched with 100 μL of 0.75% phosphoric acid and then transferred to and filtered through a phosphor cellulose filter plate (Millipore). After washing each well five times with 0.75% phosphoric acid, the plate was dried under vacuum for 5 min and, following the addition of 15 μL of scintillation fluid to each well, the residual radioactivity was measured using a Wallac […] counter. The IC50 values were derived from eight concentrations of test inhibitors.

MDA-MB-231 (breast) = experiment: In vitro cytotoxic activity (MTT) assay, MDA-MB-231; type: cell-based; conditions: Homo sapiens, exposed 96 hours, read-out: IC50, 50% inhibition of cell proliferation
Description: as §1

HCT116 (colon) = experiment: In vitro cytotoxic activity (MTT) assay, HCT116; type: cell-based; conditions: Homo sapiens, HCT-116, exposed 96 hours, read-out: IC50, 50% inhibition of cell proliferation
Description: as §1

A375 (melanoma) = experiment: In vitro cytotoxic activity (MTT) assay, A375; type: cell-based; conditions: Homo sapiens, A-375, exposed 96 hours, read-out: IC50, 50% inhibition of cell proliferation
Description: as §1

T1 sequence (P68400 whole entry): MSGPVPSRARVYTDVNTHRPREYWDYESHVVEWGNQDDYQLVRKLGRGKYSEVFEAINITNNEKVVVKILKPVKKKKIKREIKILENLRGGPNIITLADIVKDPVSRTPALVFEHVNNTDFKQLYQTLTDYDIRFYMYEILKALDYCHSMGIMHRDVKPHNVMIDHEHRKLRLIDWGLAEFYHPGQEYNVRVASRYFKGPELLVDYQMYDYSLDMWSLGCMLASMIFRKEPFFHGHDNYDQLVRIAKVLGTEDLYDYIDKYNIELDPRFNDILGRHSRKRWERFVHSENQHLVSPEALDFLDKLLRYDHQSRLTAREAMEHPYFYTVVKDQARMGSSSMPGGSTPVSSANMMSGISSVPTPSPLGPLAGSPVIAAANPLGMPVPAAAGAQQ
T1 sequence (P67870 whole entry partner): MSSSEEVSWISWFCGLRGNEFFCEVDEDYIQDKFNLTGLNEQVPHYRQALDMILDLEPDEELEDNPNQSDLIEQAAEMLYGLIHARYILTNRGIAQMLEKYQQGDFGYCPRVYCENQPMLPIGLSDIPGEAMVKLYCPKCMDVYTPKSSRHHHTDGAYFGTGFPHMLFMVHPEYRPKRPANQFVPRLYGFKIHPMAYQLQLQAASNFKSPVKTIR

IC50 [1]: 21 nM
SMILES: O=C(O)c1cc2c([nH]1)c(Nc1cccc(Cl)c1)nc1ccncc12 [Compound 1, 6-((3-chlorophenyl)amino)-7H-pyrrolo[2,3-c][1,6]naphthyridine-8-carboxylic acid]
IC50 (HL60 (leukemia)): 2800 nM
IC50 (H1299 (lung)): 1100 nM
IC50 (PC3 (prostate)): 1800 nM
IC50 (MCF7 (breast)): 3900 nM
IC50 (MIAPaCa-2 (pancreas)): 1300 nM
IC50 (MDA-MB-231 (breast)): 3200 nM
IC50 (HCT116 (colon)): 1600 nM
IC50 (A375 (melanoma)): 2500 nM
